The values below come from the METLIN SMRT retention time set (Domingo-Almenara et al. 2019).

The data set is described as follows: gradient 5% acetonitrile 3 min, to 50% in 2 min, to 85% in 15 min, held 3 min, 100 µL/min. Particulars: column: Zorbax Extend-C18 2.1 x 50 mm; eluents: water / acetonitrile, 0.1% formic acid. The procedure, abridged:
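Pure standards were run in mixtures of ~100 molecules by HPLC coupled to a quadrupole time-of-flight mass spectrometer. The column was a Zorbax Extend-C18 (2.1 × 50 mm, 1.8 μm) at 100 μL/min, with water and acetonitrile each containing 0.1% formic acid, in positive and negative ionization mode. Dead and dwell volumes were 40 μL and 900 μL. Retention time was taken from computationally picked adduct peaks, each manually inspected, with data collected over 3 months.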
The molecule `Cc1ncn(CC(=O)Nc2cc(F)ccc2F)c(=O)c1C` had an RP-LC retention time of 658 s.
In turn, `Cc1ccc(-c2ncc(NC(=O)c3ccc(Br)o3)cn2)cc1` came in with an RP-LC retention time of 1030 s.
The molecule `O=C(Nc1ccc(Cl)cc1)C1CCCN(S(=O)(=O)Cc2ccccc2)C1` (centres undefined) registered an RP-LC retention time of 976 s.
In the case of `O=C(Cc1noc2ccccc12)NCC1CCS(=O)(=O)C1` (centres undefined), the RP-LC retention time came out at 606 s.
Molecule `O=C(Nc1ccc(F)cc1)Nc1cccc(-c2ccc(N3CCOCC3)nn2)c1` yielded an RP-LC retention time of 697 s.
Molecule `CCC(CO)Nc1ncnc2c1cnn2-c1ccc(C)c(Cl)c1` (centres undefined) registered an RP-LC retention time of 761 s.
Take `Cc1ccc(N2CC(c3noc(C4(c5ccccc5)CC4)n3)CC2=O)cc1` (centres undefined): the RP-LC retention time came to 989 s.
Next, `CCn1ccc2sc(C)c(C(=O)N3CCN(c4ccccc4)CC3)c2c1=O`: 773 s.
Next, `Cn1nccc1-c1cccc(-c2noc(Cc3ccc(F)cc3)n2)c1`: 1040 s; `Cc1ccn2c(NC(=O)c3ccc(Br)cc3)c(-c3ccccc3)nc2c1`: 709 s; `CC(C)N1C(=O)c2cccnc2Sc2cc(NC(=O)c3ccc(F)cc3)ccc21`: 896 s.
`CCOC(=O)C1CCN(C(=O)CCC2CCN(c3cc(NC4CC4)ncn3)CC2)CC1`: the RP-LC retention time amounted to 586 s.
`CCn1cc(-c2ccccc2)cc1C(=O)NCCN1CCCC1` yielded an RP-LC retention time of 670 s.
In turn, `O=C1NC2(CCN(C(=O)Nc3cccc(F)c3)CC2)Oc2ccccc21` displayed an RP-LC retention time of 743 s.
`CCCn1nnc(NCc2ccc(-c3ccc(Br)cc3Br)o2)n1` yielded an RP-LC retention time of 1230 s.
Consider `COc1ccc(-n2nc3c(N4CCCC(C(=O)NCc5ccccn5)C4)nnc(C)c3c2C)cc1` (centres undefined), for which the RP-LC retention time was 591 s.
Turning to `Cc1cc2c(cc1S(=O)(=O)N1CCC(C(=O)NCCC3=CCCCC3)CC1)OCC(=O)N2`, the RP-LC retention time was 820 s.
Molecule `COC(=O)c1cc(S(=O)(=O)N2CCCC2C(=O)N2CCN(c3cccc(Cl)c3)CC2)cn1C` (centres undefined) showed an RP-LC retention time of 929 s.
On to `Cc1oc(-c2ccccc2)nc1CN1C(=O)C(O)(c2cccc(F)c2)c2ccccc21` (centres undefined), for which the RP-LC retention time came out at 1100 s.
Regarding `O=C(Nc1ccccc1-c1nc2ccccc2s1)c1c(F)cccc1F`, the RP-LC retention time came out at 1270 s.
In turn, `N#Cc1cccc(C(=O)N2CCOc3ccccc32)c1` returned an RP-LC retention time of 843 s.
In the case of `Cc1ccc(NC(=O)c2c(C)sc3ncnc(N4CCCC(C)C4)c23)cc1F` (centres undefined), the RP-LC retention time came to 1290 s.
Molecule `CCn1c(=O)c(N2CCC(C(=O)NCCc3c[nH]c4ccc(C)cc34)CC2)nc2cccnc21` had an RP-LC retention time of 984 s.
As for `Cc1nc2ccn(Cc3ccco3)c(=O)c2cc1C(=O)NCCN1CCOCC1`, the RP-LC retention time stood at 585 s.
The molecule `CCOC(=O)N1CCN(Cc2c(NC(=O)c3ccccc3)sc(C)c2C)CC1` showed an RP-LC retention time of 630 s.
Turning to `CCn1c(=O)c2cc(C(=O)NCc3ccc(N4CCC(C)CC4)cc3)nn2c2ccccc21`, the RP-LC retention time was 688 s.
The result for `CCC(C)NC(=O)CS(=O)Cc1cnn(-c2ccccc2)c1-n1cccc1` (centres undefined) reads 756 s; that for `COc1cc(NC(=O)Nc2ccc3nc(N4CCN(C)CC4)cc(C)c3c2)cc(OC)c1OC`, 574 s.
In turn, `COc1cc(C(=O)NC(C)C(=O)Nc2nc3ccccc3[nH]2)cc(OC)c1OC` (centres undefined) yielded an RP-LC retention time of 767 s.
`C[C@H]1CN(C(=O)c2ccccc2F)C[C@@H]1c1nc(-c2ccccc2)no1` had an RP-LC retention time of 1020 s.
`CCS(=O)(=O)c1nc2ccc(NS(=O)(=O)c3ccc(C(C)(C)C)cc3)cc2s1` returned an RP-LC retention time of 1040 s.
In turn, `CCOC(=O)C1CCN(C(=O)C(C)N2C(=O)C3CCCCN3C(=O)c3ccccc32)CC1` (centres undefined) came in with an RP-LC retention time of 745 s.
On to `COc1ccc(NC(=O)C2(C)Oc3cccnc3NC2=O)cc1OC` (centres undefined), for which the RP-LC retention time was 651 s.
`CN(C)CC1CN(C(=O)c2ccc(F)c(F)c2)CC12CCOCC2` (centres undefined) returned an RP-LC retention time of 578 s.
As for `Cc1c(Cl)cccc1NC(=O)Cn1c(=O)n(-c2ccc(F)cc2)c(=O)c2c1cc(C)n2C`, the RP-LC retention time amounted to 880 s.
The molecule `COc1cc(OC)cc(C(=O)N2C[C@@H]3C[C@H](NC(=O)c4cccs4)[C@H]2C3)c1` returned an RP-LC retention time of 660 s.
Next, `COc1ccc(NC(=O)Cn2cnc(-c3nc(C)cs3)c2)cc1Cl`: 699 s.
`O=C(Cc1ccc(F)cc1)Nc1nnc(-c2ccc(Br)cc2)s1` gave an RP-LC retention time of 952 s.
For `CCCCn1c(=O)c2ccccc2n(Cc2nc(-c3cc(OC)cc(OC)c3)no2)c1=O`, the RP-LC retention time was 1160 s.
Consider `CCN(CC)CCNC(=O)c1ccc(-c2ccccc2)cc1`, for which the RP-LC retention time came out at 587 s.
In turn, `COCC(=O)Nc1ccc2c(c1)N(C(=O)c1cccs1)CCC2` came in with an RP-LC retention time of 758 s.
Regarding `O=C(c1nnc(-c2ccc(S(=O)(=O)N3CCOCC3)cc2)o1)N1CCCC1`, the RP-LC retention time was 734 s.
In turn, `CCOC(=O)N1CCN(c2cc(-c3nc(-c4cccc(OC)c4OC)no3)c3ccccc3n2)CC1` had an RP-LC retention time of 1250 s.
As to `COCCCNC(=O)C1CCN(c2ccc(Sc3ccc(C(C)C)cc3)nn2)CC1`, the RP-LC retention time was determined as 853 s.
The result for `COCCn1ccc2nc(C)c(C(=O)N3CCN(c4ncccn4)CC3)cc2c1=O` reads 609 s.
Next, `O=C(c1ccco1)N1CCCn2nc(-c3cccs3)cc2C1`: 750 s; `O=C(Cn1c(=O)cc(-c2nc(C3CC3)no2)c2ccccc21)NCc1cccs1`: 882 s.
Regarding `COc1ccc2c(c1)C1(CCN(S(=O)(=O)c3ccc(F)c(F)c3)C1)C(=O)N2C` (centres undefined), the RP-LC retention time stood at 964 s.
Take `CN1c2cc(F)ccc2C(=O)NC12CCN(C(=O)NCc1ccc(F)cc1)CC2`: the RP-LC retention time was 754 s.
The molecule `O=C(CSc1ccc(NC(=O)c2ccco2)cc1)Nc1nc(-c2ccccc2)cs1` gave an RP-LC retention time of 966 s.
`CC1CCN(C(=O)C2CCN(S(C)(=O)=O)c3cc(Cl)ccc3O2)CC1` (centres undefined): the RP-LC retention time worked out at 922 s.
The result for `Cc1cccc(-c2nc(-c3ccc(-n4ccnc4)nc3)no2)c1` reads 814 s; that for `CCNc1cc(N2CCCC(CCC(=O)N3CCN(c4ncccn4)CC3)C2)ncn1` (centres undefined), 624 s.
`CCn1ccc(NC(=O)Nc2ccccc2C)n1` showed an RP-LC retention time of 801 s.
Molecule `Cc1ccsc1C(=O)NC1CCN(c2cc(-c3ccccc3)[nH]n2)C1` (centres undefined) gave an RP-LC retention time of 704 s.
Consider `O=C(NCC(=O)N1CCCc2ccccc21)c1ccccc1Cl`, for which the RP-LC retention time came to 835 s.
Next, `O=C(CCc1nnc2c(N3CCCCC3)nc3ccccc3n12)NCc1ccccc1F`: 903 s; `COc1cccc2c(Nc3ccc(S(N)(=O)=O)cc3)cc(C(=O)N3CCSCC3)nc12`: 595 s; `CCOc1ccc(NC(=O)Cc2csc3nc(-c4ccccc4)cn23)cc1`: 815 s.
As for `O=C(NCCC1=CCCCC1)C1CCCN(c2nc3ccsc3c(=O)n2Cc2ccc(F)cc2)C1` (centres undefined), the RP-LC retention time was 1090 s.
Molecule `Cc1ccc(-n2cc3c(N4CCCC(C(=O)NCc5cc(F)cc(F)c5)C4)ncnc3n2)cc1` (centres undefined) gave an RP-LC retention time of 740 s.
The result for `COc1ccc2c(c1)C1(CCN(C(=O)Nc3ccccc3OC)C1)C(=O)N2` (centres undefined) reads 722 s; that for `CN(C)C(CNC(=O)C(=O)NCc1ccc2c(c1)OCO2)c1ccsc1` (centres undefined), 556 s.
The result for `CCn1c(=O)sc2cc(S(=O)(=O)N3CCC(C(=O)Nc4ccc(Cl)cc4C)CC3)ccc21` reads 980 s.
The molecule `Cc1ccccc1NC(=O)C1CCN(S(=O)(=O)c2c(C)[nH]c(C)c2C(=O)N2CCCC2)CC1` registered an RP-LC retention time of 675 s.
Consider `Cc1ccc(CNC(=O)C2(C)CCCN(C(=O)Nc3cc(Cl)ccc3C)C2)cc1` (centres undefined), for which the RP-LC retention time was 1080 s.
Molecule `COCCN1CCC(N2CCN(S(=O)(=O)c3cccc(Br)c3)CC2)C1=O` (centres undefined) showed an RP-LC retention time of 612 s.
Molecule `COc1nc2ccccc2nc1N1CCCC(C(=O)NCc2ccco2)C1` (centres undefined) had an RP-LC retention time of 951 s.
Consider `O=C(NCc1ccc(N2CCCCC2)nc1)C1CCCCC1`, for which the RP-LC retention time was found to be 616 s.
Molecule `CC(C)c1nnc(-c2coc(S(=O)(=O)N3CCC(N4CCCCC4)CC3)c2)o1` yielded an RP-LC retention time of 625 s.
Consider `CCc1ccc2oc(C(=O)NCC(c3ccccc3OC)N(C)C)cc(=O)c2c1` (centres undefined), for which the RP-LC retention time came to 659 s.
In turn, `COC(=O)c1cnc(N2CCN(c3cc(Cl)ccc3C)CC2)c2ccccc12` gave an RP-LC retention time of 651 s.
Molecule `O=C(NCc1cscn1)C1CCN(S(=O)(=O)c2cccs2)CC1` displayed an RP-LC retention time of 652 s.
Molecule `O=C(NCc1ccco1)C1CCN(c2cnc3nccnc3c2)CC1` registered an RP-LC retention time of 629 s.
Next, `Cc1cc(C)cc(OCCNC(=O)Nc2cc(F)ccc2F)c1`: 992 s; `O=C(C1CCOC1)N1CC(Oc2ccc(-c3nc(-c4ccccc4)no3)cc2)C1` (centres undefined): 952 s; `CCOc1ccc(NC(=O)c2cc3c(=O)n(CC)ccc3n2C)cc1`: 757 s.
`CCc1nc(-c2csc(S(=O)(=O)N3CCC(C(=O)Nc4ccc(F)cc4C)CC3)c2)no1`: the RP-LC retention time was found to be 963 s.
For the molecule `CCc1ccc(NS(=O)(=O)c2cc3c(s2)CCN(C(=O)C2CCC2)C3)cc1`, the RP-LC retention time was 859 s.
